This is an account of results in PubChem BioAssay AID2060492 (Molecular Pharmacology Branch, DTP, NCI, 2025).

Each structure is given as a SMILES string. Where “and” joins values, the source holds several entries; their conditions need not be identical. Equal values may be shown once. Some results are limits rather than exact numbers.

This experiment relates to 695427-040-R-J1-PDC complex spheroids, viability percent T/C. The experiment can be described thus: Anticancer human tumor 695427-040-R-J1-PDC patient-derived colon adenocarcinoma cell line growth inhibition [GQUAD]. To be noted: for viability, T/C: stronger effect = lower value. The text has this:
DNA G-quadruplex Stabilizer Agents in Combinations in Complex Spheroids
A high-throughput screen of multi-cell type tumor spheroids was designed to identify active combinations of DNA G-quadruplex stabilizer agents and targeted small molecules. Complex spheroids include a stromal component modeled by human endothelial cells (HUVEC) and fibroblasts modeled by human mesenchymal stem cells (MSCs). The concentration ranges selected for each drug and investigational agent were based upon clinically achievable concentrations if the clinical Cmax of the agent was known.
Compounds. The drugs and investigational agents: pidnarulex (CX-5461; NSC782164), APTO-253 (NSC789042), BRACO-19 (NSC847499), peposertib (NSC802822), ceralasertib (NSC780249), elimusertib (NSC800525), camonsertib (NSC841442), AZD-1390 (NSC803789), olaparib (NSC753686), talazoparib (NSC767125), ART-558 (NSC835418), sotorasib (NSC818433), MRTX-1133 (NSC836407), SN-38 (NSC673596), topotecan (NSC609699), etoposide (NSC141540), doxorubicin (NSC123127), gemcitabine (NSC613327), 5-fluorouracil (NSC19893), paclitaxel (NSC125973), vemurafenib (NSC761431), panobinostat (NSC761190), R-306465 (JNJ-16241199; NSC773264), adavosertib (NSC754352), TP-3654 (NSC805149), carboplatin (NSC241240), KSQ-4279 (NSC840948), and staurosporine (NSC755774) were obtained from the National Cancer Institute (NCI) Developmental Therapeutics Program Chemical Repository (34). The FDA-approved anticancer drug set is available from the NCI Developmental Therapeutics Program. […] The stock solutions were prepared in dimethyl sulfoxide (DMSO, Sigma-Aldrich, St. Louis, MO, cat. D2650) at 800-fold the tested concentration and stored at -70 degrees C prior to their use. All drugs and investigational agents were tested over a range starting from a high concentration at or near the clinical Cmax and decreasing in half-log increments. If the clinical Cmax for an agent had not been determined, the highest concentration tested was 10 microM.
2.3 Cell Culture. All cells were maintained in an incubator at 37 degrees C and 5% CO2 with 95% humidity. The PDC lines were cultured according to standard operating procedures established by the NCI PDMR. All PDCs were thawed and cultured in Matrigel-coated flasks prepared with a working solution of 1X Ham's F-12 nutrient mix, without supplementation (Invitrogen, cat. 11765054), 100 U/mL penicillin-streptomycin (Invitrogen, cat. 15140122), and 2.5% Matrigel (Corning Inc., cat. 354248) for the first three passages. The 857933-349-R-J2-PDC line was cultured in 6C/Colon 1B media, which includes advanced DMEM/F-12 (Thermo Fisher Scientific, cat. 12634028), 10 mM HEPES (Thermo Fisher Scientific, cat. 15630080), 1X GlutaMAX supplement (Thermo Fisher Scientific, cat. 35050061), 0.1 mg/mL primocin (InvivoGen, cat. ant-pm-2), 10% defined fetal bovine serum, heat inactivated (HyClone Laboratories Inc., cat. SH30070.03HI), 50% L-WRN conditioned media (ATCC, cat. CRL-3276), 1.25 mM N-Acetyl-L-cysteine (Sigma-Aldrich, cat. A9165), 10 mM nicotinamide (Sigma-Aldrich, cat. N0636), 1X B-27 supplement (Thermo Fisher Scientific, cat. 17504044), 1X N-2 supplement (Thermo Fisher Scientific, cat. 17502048), 10 microM Y-27632 dihydrochloride (Tocris Bioscience, cat. 1254), and 50 ng/mL human EGF recombinant protein (Thermo Fisher Scientific, cat. PHG0311). The 485176-168-R4-J1-PDC line was cultured in Panc media, which includes all 6C/Colon 1B media components plus 100 ng/mL human FGF-10 (Thermo Fisher Scientific, cat. 100-26), 500 nM SB-431542 (Selleckchem, cat. S1067), and gastrin (Tocris, cat. 3006).
[…]
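Note: spheroids exposed to compounds for seven days before readout.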

One may read the IC50 as the concentration at which inhibition is half-maximal. The viability, T/C is the ratio of treated to control. For `COc1cc(C2c3cc4c(cc3C(OC3OC5COC(C)OC5C(O)C3O)C3COC(=O)C23)OCO4)cc(OC)c1O` (configuration not stated) + Cc1[nH]c2ccc(F)cc2c1-c1nc2c3cccnc3c3ncccc3c2[nH]1, the IC50 is, setting by setting: (curve of first compound, second compound 0.0316 µM) above 10000 nM; (curve of first compound, second compound 0.1 µM) above 10000 nM; (curve of first compound, second compound 0.316 µM) above 10000 nM; (curve of first compound, second compound 1 µM) above 10000 nM; (curve of first compound, second compound 3.16 µM) above 10000 nM; (curve of first compound, second compound 10 µM) above 10000 nM. For the same molecule, the viability, T/C (second compound 0.0316 µM, first compound 0.0316 µM) was 118%; the viability, T/C (second compound 0.0316 µM, first compound 0.1 µM) is 90.7%; the viability, T/C (second compound 0.0316 µM, first compound 0.316 µM) is 105%; the viability, T/C (second compound 0.0316 µM, first compound 1 µM) is 102%; the viability, T/C (second compound 0.0316 µM, first compound 3.16 µM) is 87.4%; the viability, T/C (second compound 0.0316 µM, first compound 10 µM) was 78.1%. Moreover, the viability, T/C (second compound 0.1 µM, first compound 0.0316 µM) was 110%; the viability, T/C (second compound 0.1 µM, first compound 0.1 µM) was 92.6%; the viability, T/C (second compound 0.1 µM, first compound 0.316 µM) is 113%; the viability, T/C (second compound 0.1 µM, first compound 1 µM) was 68.8%; the viability, T/C (second compound 0.1 µM, first compound 3.16 µM) is 84.1%; the viability, T/C (second compound 0.1 µM, first compound 10 µM) was 76.7%. The viability, T/C was 112% (second compound 0.316 µM, first compound 0.0316 µM); 83.3% (second compound 0.316 µM, first compound 0.1 µM); 80.3% (second compound 0.316 µM, first compound 0.316 µM); 87.3% (second compound 0.316 µM, first compound 1 µM); 85.8% (second compound 0.316 µM, first compound 3.16 µM); 74.1% (second compound 0.316 µM, first compound 10 µM). Moreover, the viability, T/C (second compound 1 µM, first compound 0.0316 µM) was 91.9%; the viability, T/C (second compound 1 µM, first compound 0.1 µM) was 95.4%; the viability, T/C (second compound 1 µM, first compound 0.316 µM) was 90.5%; the viability, T/C (second compound 1 µM, first compound 1 µM) is 87.6%; the viability, T/C (second compound 1 µM, first compound 3.16 µM) was 91.5%; the viability, T/C (second compound 1 µM, first compound 10 µM) is 71.2%. Also, the viability, T/C by setting is: (second compound 3.16 µM, first compound 0.0316 µM) 81.2%; (second compound 3.16 µM, first compound 0.1 µM) 85.9%; (second compound 3.16 µM, first compound 0.316 µM) 82.7%; (second compound 3.16 µM, first compound 1 µM) 82.7%; (second compound 3.16 µM, first compound 3.16 µM) 81.3%; (second compound 3.16 µM, first compound 10 µM) 69%. Besides, the viability, T/C (second compound 10 µM, first compound 0.0316 µM) is 65.9%; the viability, T/C (second compound 10 µM, first compound 0.1 µM) is 74.3%; the viability, T/C (second compound 10 µM, first compound 0.316 µM) is 87%; the viability, T/C (second compound 10 µM, first compound 1 µM) was 83.8%; the viability, T/C (second compound 10 µM, first compound 3.16 µM) is 68.7%; the viability, T/C (second compound 10 µM, first compound 10 µM) was 64.3%.
Consider `C#Cc1c(F)ccc2cc(O)cc(-c3ncc4c(N5CC6CCC(C5)N6)nc(OCC56CCCN5CC(F)C6)nc4c3F)c12` (configuration not stated), for which the viability, T/C is 95.2% and 101% and 104% (compound 0.0316 µM); 102% and 103% and 111% (compound 0.1 µM); 95.2% and 99.6% and 102% (compound 0.316 µM); 94.3% and 81.3% and 97.2% (compound 1 µM); 56.7% and 17.5% and 103% (compound 3.16 µM); 59% and 15.6% and 82.1% (compound 10 µM). Moreover, the 50% inhibitory concentration (IC50) (curve of compound) was > 10000 nM and 1760 nM.
Regarding `Cc1cnc(CNC(=O)c2c(=O)c3ccc(N4CCCN(C)CC4)nc3n3c2sc2ccccc23)cn1`, the viability, T/C was 95.8% [middle of 12 runs] (compound 0.0316 µM); 91.6% [middle of 12 runs] (compound 0.1 µM); 85.3% [middle of 12 runs] (compound 0.316 µM); 76.2% [middle of 12 runs] (compound 1 µM); 58% [middle of 12 runs] (compound 3.16 µM); 44.7% [middle of 12 runs] (compound 10 µM).
In the case of `CC1COCCN1c1cc(C2(O)CC3CCC(C2)O3)c2cnn(-c3ccn[nH]3)c2n1` (configuration not stated), the viability, T/C runs as follows: (compound 0.0316 µM) 79.3% and 91.3% and 95%; (compound 0.1 µM) 66.4% and 78.3% and 88.3%; (compound 0.316 µM) 54.6% and 68.4% and 73.6%; (compound 1 µM) 41.1% and 52% and 56.7%; (compound 3.16 µM) 23.6% and 30.7% and 47.5%; (compound 10 µM) 20% and 23.6% and 36.8%. The IC50 (curve of compound) is 431 nM and 993 nM and 2090 nM.
